The results in this text go back to US5629296A, “9A-N-(N'-carbamoyl)and 9A-N-(N'-thiocarbamoyl) derivatives of 9-deoxo-9A-aza-9A-homoerythromycin A” (Pliva farmaceutiska, kemijska, prehrambena i kozmeticka …, priority 1993, dated 1997).

Holding throughout (assay): MIC, dilution method on microplates (NCCLS M7-A2)
Holding throughout (assay type): cell-based

One assay concerns B. cererus ATCC 11778. The method, then:
(§1) Minimum inhibitory concentrations (MIC, mcg/ml) are determined by dilution method on microplates according to the recommendation of National Committee for Clinical Laboratory Standards (NCCLS, M7-A2). It is evident from Table 1 that standard strains and clinical isolates tested are susceptible to newly synthetised compounds. Thus they may be used for disinfection of rooms, chirurgical instruments and humans and as therapeutic agents in the treatment of infective diseases in animals, especially mammals and humans, caused by a broad spectrum of Gram-positive bacteria, mycoplasmas and generally patogenic microorganisms that are susceptible to the compounds of the formula (I). To this purpose the above compounds and pharmaceutically acceptable acid addition salts thereof may be administered orally in usual doses from 0.2 mg/kg body weight daily to about 250 mg/kg/day, most preferably from 5-50 mg/kg/day, or parenterally in the form of subcutaneous and intramuscular injections.

Another assay concerns B. pumilus NCTC 8241. Particulars: Bacillus pumilus, NCTC8241. The method, then:
as §1

Assay [1] deals with BHS-A Streptococcus pyogenes J-21. The method, then: as §1
The test system of assay [2] is BHS-B Streptococcus Agalactiae J-22. The method, then:
as §1

Assay [3] concerns Bacillus subtilis NCTC 8236. The settings on record: NCTC8236. The method, then: as §1
Assay [4] has as its system Esherichia coli ATCC 10536. The method, then:
as §1

Assay [5] relates to Micrococcus flavus ATCC 10240. Particulars: ATCC10240. The method, then:
as §1

The subject of assay [6] is Pseudomonas aeruginosa NCTC 10490. The settings on record: NCTC10490. The method, then:
as §1

The next assay deals with Salmonella Panama 6117. Particulars: Salmonella enterica, PANAMA6117. As to the method: as §1
Assay [7] concerns Staphylococcus aureus ATCC 6538P. Particulars: ATCC6538P. The method, then:
as §1

For assay [8], the system named is Staphylococcus epidermidis ATCC 12228. Particulars: ATCC12228. The method, then: as §1
The subject of assay [9] is Streptococcus faecalis ATCC 8043. The settings on record: Enterococcus faecalis, ATCC8043. As to the method:
as §1

Molecules are shown by their SMILES. In brackets after ≈: the same amount, converted by molar mass.

By MIC is commonly meant the smallest concentration in the dilution series that meets the test's criterion for growth inhibition. A high value points to a less susceptible organism. Take `CC[C@H]1OC(=O)[C@H](C)[C@@H](O[C@H]2C[C@@](C)(OC)[C@@H](O)[C@H](C)O2)[C@H](C)[C@@H](O[C@@H]2O[C@H](C)C[C@H](N(C)C)[C@H]2O)[C@](C)(O)C[C@@H](C)CN[C@H](C)[C@@H](O)[C@]1(C)O` [Example 9a-NH, 9-deoxo-9a-aza-9a-homoerythromycin A]: the MIC stood at 3.12 µg/mL (≈ 4.25 µM) against B. cererus ATCC 11778; 12.5 µg/mL (≈ 17 µM) with B. pumilus NCTC 8241; 3.12 µg/mL (≈ 4.25 µM) in assay [1]; 1.56 µg/mL (≈ 2.12 µM) in [2]; 12.5 µg/mL (≈ 17 µM) in [3]; 3.12 µg/mL (≈ 4.25 µM) in [4]. The MIC amounted to 1.56 µg/mL (≈ 2.12 µM) in assay [5]; 25 µg/mL (≈ 34 µM) in assay [6]; 3.12 µg/mL (≈ 4.25 µM) in the assay on Salmonella Panama 6117; 3.12 µg/mL (≈ 4.25 µM) in assay [7]; 3.12 µg/mL (≈ 4.25 µM) in assay [8]; 3.12 µg/mL (≈ 4.25 µM) in assay [9].

Regarding `CC[C@H]1OC(=O)[C@H](C)[C@@H](O[C@H]2C[C@@](C)(OC)[C@@H](O)[C@H](C)O2)[C@H](C)[C@@H](O[C@@H]2O[C@H](C)C[C@H](N(C)C)[C@H]2O)[C@](C)(O)C[C@@H](C)CN(C(=O)Nc2ccncc2)[C@H](C)[C@@H](O)[C@]1(C)O` [Example 4, 9-deoxo-9a-N-[N'-(4-pyridyl)-carbamoyl]-9a-aza-9a-homoerythromycin A], the MIC in the assay on B. cererus ATCC 11778 turned out to be 12.5 µg/mL (≈ 14.6 µM); in the assay on B. pumilus NCTC 8241, 12.5 µg/mL (≈ 14.6 µM); in [1], 12.5 µg/mL (≈ 14.6 µM); in [2], 12.5 µg/mL (≈ 14.6 µM); in assay [3] it was 25 µg/mL (≈ 29.2 µM); in [4] it was 12.5 µg/mL (≈ 14.6 µM). In addition, the MIC in assay [5] was determined as 12.5 µg/mL (≈ 14.6 µM); in assay [6], 50 µg/mL (≈ 58.5 µM); against Salmonella Panama 6117 it was 25 µg/mL (≈ 29.2 µM); in assay [7], 12.5 µg/mL (≈ 14.6 µM); in assay [8], 25 µg/mL (≈ 29.2 µM); in assay [9], 6.25 µg/mL (≈ 7.31 µM).

Take `CC[C@H]1OC(=O)[C@H](C)[C@@H](O[C@H]2C[C@@](C)(OC)[C@@H](O)[C@H](C)O2)[C@H](C)[C@@H](O[C@@H]2O[C@H](C)C[C@H](N(C)C)[C@H]2O)[C@](C)(O)C[C@@H](C)CN(C(=S)NCc2ccccc2)[C@H](C)[C@@H](O)[C@]1(C)O` [Example 7, 9-deoxo-9a-N-(N'-benzyl-thiocarbamoyl)-9a-aza-9a-homoerythromycin A]: the MIC is 6.25 µg/mL (≈ 7.07 µM) against B. cererus ATCC 11778; 1.56 µg/mL (≈ 1.76 µM) in the assay with B. pumilus NCTC 8241; 1.56 µg/mL (≈ 1.76 µM) in assay [3]; 12.5 µg/mL (≈ 14.1 µM) in assay [4]; 1.56 µg/mL (≈ 1.76 µM) in [5]; 50 µg/mL (≈ 56.5 µM) in assay [6]. In addition, the MIC against Salmonella Panama 6117 was greater than 100 µg/mL; in [7] it was 3.12 µg/mL (≈ 3.53 µM); in [8], 6.25 µg/mL (≈ 7.07 µM); in assay [9], 1.56 µg/mL (≈ 1.76 µM).

In the case of `CC[C@H]1OC(=O)[C@H](C)[C@@H](O[C@H]2C[C@@](C)(OC)[C@@H](O)[C@H](C)O2)[C@H](C)[C@@H](O[C@@H]2O[C@H](C)C[C@H](N(C)C)[C@H]2O)[C@](C)(O)C[C@@H](C)CN(C(=O)Nc2ccccc2)[C@H](C)[C@@H](O)[C@]1(C)O` [Example 5, 9-deoxo-9a-N-(N'-phenyl-carbamoyl)-9a-aza-9a-homoerythromycin A], the MIC turned out to be 12.5 µg/mL (≈ 14.6 µM) against B. cererus ATCC 11778; 6.25 µg/mL (≈ 7.32 µM) against B. pumilus NCTC 8241; 3.12 µg/mL (≈ 3.65 µM) in assay [1]; 1.56 µg/mL (≈ 1.83 µM) in assay [2]; 6.25 µg/mL (≈ 7.32 µM) in assay [3]; 12.5 µg/mL (≈ 14.6 µM) in assay [4]. Moreover, the MIC in [5] amounted to 6.25 µg/mL (≈ 7.32 µM); in [6], 50 µg/mL (≈ 58.5 µM); in the assay with Salmonella Panama 6117, 25 µg/mL (≈ 29.3 µM); in assay [7] it was 6.25 µg/mL (≈ 7.32 µM); in [8] it was 3.12 µg/mL (≈ 3.65 µM); in [9] it was 3.12 µg/mL (≈ 3.65 µM).

As to `CC[C@H]1OC(=O)[C@H](C)[C@@H](O[C@H]2C[C@@](C)(OC)[C@@H](O)[C@H](C)O2)[C@H](C)[C@@H](O[C@@H]2O[C@H](C)C[C@H](N(C)C)[C@H]2O)[C@](C)(O)C[C@@H](C)CN(C(=O)NC(C)C)[C@H](C)[C@@H](O)[C@]1(C)O` [Example 1, 9-deoxo-9a-N-(N'-isopropyl-carbamoyl)-9a-aza-9a-homoerythromycin A], the MIC in the assay on B. cererus ATCC 11778 is 6.25 µg/mL (≈ 7.62 µM); with B. pumilus NCTC 8241, 6.25 µg/mL (≈ 7.62 µM); in [3], 1.56 µg/mL (≈ 1.9 µM); in assay [4] it was 12.5 µg/mL (≈ 15.2 µM); in assay [5] it was 3.12 µg/mL (≈ 3.8 µM); in [6], 25 µg/mL (≈ 30.5 µM). The MIC against Salmonella Panama 6117 was 6.25 µg/mL (≈ 7.62 µM); in assay [7], 1.56 µg/mL (≈ 1.9 µM); in assay [8] it was 6.25 µg/mL (≈ 7.62 µM); in [9] it was 3.12 µg/mL (≈ 3.8 µM).

As for `CC[C@H]1OC(=O)[C@H](C)[C@@H](O[C@H]2C[C@@](C)(OC)[C@@H](O)[C@H](C)O2)[C@H](C)[C@@H](O[C@@H]2O[C@H](C)C[C@H](N(C)C)[C@H]2O)[C@](C)(O)C[C@@H](C)CN(C(=O)NCc2ccccc2)[C@H](C)[C@@H](O)[C@]1(C)O` [Example 6, 9-deoxo-9a-N-(N'-benzyl-carbamoyl)-9a-aza-9a-homoerythromycin A], the MIC amounted to 6.25 µg/mL (≈ 7.2 µM) against B. cererus ATCC 11778; 3.12 µg/mL (≈ 3.59 µM) in the assay with B. pumilus NCTC 8241; 3.12 µg/mL (≈ 3.59 µM) in assay [3]; 25 µg/mL (≈ 28.8 µM) in [4]; 3.12 µg/mL (≈ 3.59 µM) in [5]; 50 µg/mL (≈ 57.6 µM) in assay [6]. For the same molecule, the MIC is greater than 100 µg/mL against Salmonella Panama 6117, 3.12 µg/mL (≈ 3.59 µM) in [7], 6.25 µg/mL (≈ 7.2 µM) in [8] and 3.12 µg/mL (≈ 3.59 µM) in [9].
